What is called inhibition is the drop in the measured response relative to a control, in per cent.

Experiment [1] deals with PAF-induced bronchoconstriction. The experiment is described as follows: Effect on platelet activating factor (PAF)-induced bronchoconstriction in guinea pig (Konzett-Roessler method). The class given is in vivo. Conditions: P.O., one hour before PAF (1 µg/kg i.v.), male Hartley guinea pigs. As to the method:
Male Hartley guinea pigs (body weights about 500 g) were used. Bronchoconstriction induced by PAF (1 µg/kg i.v.) in guinea pigs was measured according to the method of Konzett-Roessler. The guinea pig immobilized in the dorsal position, tracheotomy was anesthetized with urethane (1.5 g/kg i.v.) and the trachea was connected through a cannula to a respirator. The side branch of the tracheal cannula was connected to a broncho transducer (Model 7020, Ugobasile). The volume of overflow air was recorded on a rectigraph (Recte-Hori-8S, San-ei Sokki) through the brancho transducer. After guinea pig was given gallamine (1 mg/kg i.v.), the guinea pig was treated by PAF (1 µg/kg). The drug suspended in a 5% solution of gum arabic was administered orally in a dose of 3 mg/kg or 1 mg/kg one hour before PAF treatment.

In a further experiment the test system is Guinea Pig Eosinophils. The experiment is described as follows: Chemotaxis inhibition assay (LTB4-induced chemotaxis of guinea pig eosinophils). The class given is cell-based. Conditions: test drug final concentration 10^-5 M, LTB4 10^-8 M, 2 hours; for inhibition at 10 µM: Cavia porcellus, Eosinophil, read-out: Chemotaxis Inhibition Rate (%). As to the method:
Male Hartley guinea pigs (body weights approx. 300 g) were intraperitoneally treated with 2 ml of horse serum (Whittaker Bioproducts) once a week for 8 consecutive weeks. Forty-eight (48) hours after the last treatment, 75 ml of physiological saline was infused into the peritoneal cavity and the lavage was collected and centrifuged at 400 G (1500 rpm) for 5 minutes. The pellet was suspended in 5 ml of Percoll discontinuous density, gradients (specific gravity d=1.07), layered on top of the Percoll suspensions (specific gravity d=1.112:5 ml, d=1.095:10 ml, d=1.090:10 ml, d=1.085:7 ml) and centrifuged (18°C) at 1000 G (2200 rpm) for 30 minutes. The cell layer formed in the boundary zone between the d=1.112 and d=1.095 layers was collected. The collected cell sediment was subjected to hypotonic treatment (suspended in water for 30 seconds) to remove the contaminant erythrocytes.
The sediment was washed three times with Hanks solution containing 10 mM Hepes (Dojin Kagaku) (Hanks-Hepes) and suspended in Hanks-Hepes containing 2% (w/v) human serum albumin (Wako Pure Chemical) (Hanks-Hepes-HSA) at a concentration of 5.56 x 10^6 celles/ml. The eosinophil purity was 92-96% and the viability of eosinophils was not less than 98%.
To a 24-well petri dish, which serves as a lower chamber, 600 µl of LTB4 (final concentration 10^-8 M, Cascade Biochemical Ltd.) in suspension in Hanks-Hepes-HSA solution, was transferred, followed by incubation at 37°C for 30 minutes in carbon dioxide incubator. Separately, 200 µl (5 × 10^6 cells/ml) of eosinophil suspension, previously incubated at 37°C for 15 minutes in a constant-temperature chamber, was added to Chemotaxicell (polycarbonate membrane, pore size 3 µm, thickness 10 µm), which serves as an upper chamber, after the upper chamber was attached to the 24-well petri dish. After 2 hours of reaction in the carbon dioxide incubator, the Chemotaxicell was removed; 60 µl of a 2% (w/v) solution of EDTA in physiological saline was added to the liquid in the lower chamber. After the mixture was ice cooled, the cells migrating into the lower chamber liquid were counted using a blood cell counter (Coulter Counter (trade name)). The test drug, dissolved in dimethyl formamide (DMF), was added to both the upper and lower chambers to a final concentration of 10^-5 M. [formula]

For `CCc1cc2ncnn2nc1OCC(C)(C)CS(N)(=O)=O` [Example 1, 6-(2,2-dimethyl-3-sulfamoyl-l-propoxy)-7-ethyl[1,2,4]triazolo[1,5-b]pyridazine], the “% Inhibition of PAF-induced bronchoconstriction” value (shortened to “% Inhibition”) in experiment [1] (1 mg/kg) amounted to 70%. Also, in the experiment on Guinea Pig Eosinophils, the “Chemotaxis Inhibition Rate (%)” value is reported as 35%. Take `CCCc1cc2ncnn2nc1OCC(C)(C)CS(N)(=O)=O` [Example 2, 6-(2,2-dimethyl-3-sulfamoyl-1-propoxy)-7-n-propyl[1,2,4]triazolo[1,5-b]pyridazine]: the “% Inhibition” value in experiment [1] (1 mg/kg) was 67%. Moreover, the inhibition at 10 µM with Guinea Pig Eosinophils was 24%.

As to `CCC(CC)(COc1nn2ncnc2cc1C(C)C)CS(N)(=O)=O` [Example 4, 6-(2,2-diethyl-3-sulfamoyl-1-propoxy)-7-isopropyl[1,2,4]triazolo[1,5-b]pyridazine], the “% Inhibition” value in experiment [1] (1 mg/kg) turned out to be 60%. Also, the inhibition at 10 µM in the experiment with Guinea Pig Eosinophils came to 23%. For the molecule `CC(C)(COc1nn2ncnc2cc1C(C)(C)C)CS(N)(=O)=O` [Example 6, 6-(2,2-dimethyl-3-sulfamoyl-1-propoxy)-7-t-butyl[1,2,4]triazolo[1.5-b]pyridazine], the “% Inhibition” value in experiment [1] (1 mg/kg) came to 43%; in experiment [1] (3 mg/kg), 83%. The “Chemotaxis Inhibition Rate (%)” value in the experiment on Guinea Pig Eosinophils was determined as 38%. For `Cc1cc2ncnn2nc1OCC(C)(C)CS(N)(=O)=O` [Reference compound, 6-(2,2-dimethyl-3-sulfamoyl-1-propoxy)-7-methyl[1,2,4]triazolo[1,5-b]pyridazine, reference compound], the “% Inhibition” value in experiment [1] (3 mg/kg) is 25%. Moreover, the inhibition at 10 µM with Guinea Pig Eosinophils was found to be 12%. Regarding `CC(C)c1cc2ncnn2nc1OCC(C)(C)CS(N)(=O)=O` [Example 3, 6-(2,2-dimethyl-3-sulfamoyl-1-propoxy)-7-isopropyl[1,2,4]triazolo[1,5-b]pyridazine], the “% Inhibition” value in experiment [1] (1 mg/kg) is recorded as 72%. With `CCCCCCc1cc2ncnn2nc1OCC(C)(C)CS(N)(=O)=O` [Example 7, 6-(2,2-dimethyl-3-sulfamoyl-1-propoxy)-7-n-hexyl[1,2,4]triazolo[1,5-b]pyridazine], in the experiment on Guinea Pig Eosinophils, the inhibition at 10 µM was 24%.

For `CC(C)Cc1cc2ncnn2nc1OCC(C)(C)CS(N)(=O)=O` [Example 5, 6-(2,2-dimethyl-3-sulfamoyl-1-propoxy)-7-isobutyl[1,2,4]triazolo[1,5-b]pyridazine], the inhibition at 10 µM in the experiment on Guinea Pig Eosinophils was determined as 27%.

Source of the values: patent publication EP0781283B1, “TRIAZOLOPYRIDAZINES PROCESS AND INTERMEDIATES FOR THEIR PREPARATION AND THEIR USE AS MEDICAMENTS” (Takeda Chemical Industries, Ltd., priority 1994, dated 1996).
